Test results reported in patent US20010008947A1, “2-AMINO-4-PHENYL-4-OXO-BUTYRIC ACID DERIVATIVES” (priority 1993, published 2001).
Counter-ions that a name gives are not always drawn.

Columns and labels:
[1] = target: T1, kynurenine-3-hydroxylase (Rattus norvegicus, UniProt O88867); test: Kynurenine-3-hydroxylase assay in the rat brain; format: biochemical; conditions: rat brain homogenate; for inhibition at 100 µM: read-out: % INHIBITION AT 100 μM Kyn-3-OH-Ase; for IC50: read-out: IC50 Kyn-3-OH-Ase
T1 construct: Brain was homogenized in ice-cold 0.32 M sucrose and centrifugated at 12000×g; from tissue; host or cells: rat brain homogenate, washed pellet suspended
T1 sequence (O88867 whole entry): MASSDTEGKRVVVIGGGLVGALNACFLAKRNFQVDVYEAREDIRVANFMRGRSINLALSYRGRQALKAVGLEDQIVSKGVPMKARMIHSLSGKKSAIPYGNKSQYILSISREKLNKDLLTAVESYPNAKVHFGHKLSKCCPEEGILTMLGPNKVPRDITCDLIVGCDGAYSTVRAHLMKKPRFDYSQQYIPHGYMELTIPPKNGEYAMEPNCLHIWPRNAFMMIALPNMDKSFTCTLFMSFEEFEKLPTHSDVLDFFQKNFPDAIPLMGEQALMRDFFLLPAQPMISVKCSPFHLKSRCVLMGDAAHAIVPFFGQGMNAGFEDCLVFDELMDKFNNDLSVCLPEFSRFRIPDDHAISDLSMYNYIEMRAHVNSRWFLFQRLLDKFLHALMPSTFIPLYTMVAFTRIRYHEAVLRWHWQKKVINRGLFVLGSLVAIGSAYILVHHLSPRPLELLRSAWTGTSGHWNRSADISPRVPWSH
Description: Kynurenine-3-hydroxylase assay in the rat brain
Kynurenine-3-hydroxylase activity was quantified by the conversion of L-kynurenine to 3-hydroxykynurenine. Brain was homogenized in ice-cold 0.32 M sucrose and centrifugated at 12000×g, for 30 min at 4 C. The pellet was washed three times with 0.32 M sucrose by centrifugation and suspended in 0.14 M KCl in 20 mM K-phosphate buffer pH 7 (1 g tissue in 2 ml buffer).
The reaction mixture contained: 75 μl of suspended homogenate; 100 μl of substrate solution containing 50 mM K-phosphate buffer pH 7.5, 2 mM MgCl2, 0.4 mM NADPH and 50 μM L-kynurenine (final concentration); 25 μl of different concentrations of inhibitor solutions.
The reaction was stopped by addition of 200 μl of 1 M HClO4 after 60 min. incubation.
3-hydroxykynurenine formed was quantified by HPLC with coulometric detection (working voltage was +0.2 V). The column was a 10 cm C18 reversed phase (3 μm). The mobile phase consisted of 950 ml distilled water. 20 ml acetonitrile, 9 ml triethylamine, 5.9 ml phosphoric acid, 100 mg sodium EDTA and 1.5 g heptanesulfonic acid. The flow-rate was 1 ml/min.

[2] = target: T2, rat brain kynureninase (Rattus norvegicus, UniProt P70712); test: Kynureninase assay in the rat brain; format: biochemical; conditions: rat brain homogenate; for inhibition at 100 µM: read-out: % INHIBITION AT 100 μM Kyn-Ase
T2 construct: Partial purification of rat brain kynureninase was performed according to Lee et al; from tissue; host or cells: rat brain, partially purified enzyme
T2 sequence (P70712 1-464): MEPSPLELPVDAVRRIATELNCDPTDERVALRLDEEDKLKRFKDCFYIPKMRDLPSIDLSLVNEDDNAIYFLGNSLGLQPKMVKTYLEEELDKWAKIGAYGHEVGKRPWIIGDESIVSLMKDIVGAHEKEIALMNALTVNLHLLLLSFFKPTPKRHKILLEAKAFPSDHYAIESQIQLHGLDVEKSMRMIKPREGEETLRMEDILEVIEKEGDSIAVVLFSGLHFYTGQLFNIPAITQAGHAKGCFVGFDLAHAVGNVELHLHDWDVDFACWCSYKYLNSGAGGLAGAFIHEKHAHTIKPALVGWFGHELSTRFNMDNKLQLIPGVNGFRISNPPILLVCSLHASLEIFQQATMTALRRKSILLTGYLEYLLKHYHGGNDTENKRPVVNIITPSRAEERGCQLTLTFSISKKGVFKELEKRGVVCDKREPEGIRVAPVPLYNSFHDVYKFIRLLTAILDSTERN
Description: Kynureninase assay in the rat brain
Partial purification of rat brain kynureninase was performed according to Lee et al., “Isolation and characterization of kynureninase from rat liver”, advances in Tryptophan Research, 431-434, 1992.
To perform rat brain kynureninase assay, a reaction mixture (final volume 0.2 ml) containing 100 mM tris-HCl, pH 8.0, […] pyridoxal phosphate, […] kynurenine, 20 μl of partially purified enzyme and 100 μM of inhibitor solution was prepared.
The reaction was carried out at 37° C. for 3 hours and then stopped by adding 50 μl of perchloric acid 2N. After centrifugation at 11000 rpm for 15 min., anthranilic acid in the supernatant was determined fluorimetrically in a HPLC system (as described for the liver method).

[3] = target: T1, kynurenine-3-hydroxylase; test: Kynurenine-3-hydroxylase assay in the rat liver; format: biochemical; conditions: rat liver homogenate
Description: Kynurenine-3-hydroxylase assay in the rat liver
Rat liver is homogenized in cold 0.32 M sucrose.
The homogenates are centrifuged at 12000×rpm for 30 minutes at 4° C. The precipitate, after having been washed three times with 0.32 M sucrose by means of centrifugation (12000×rpm for 30 min), is resuspended in 20 mM K-buffer+0.14 M KCl at pH 7 (1 g of liver in 6.5 ml ).
The reaction at 37° C. is terminated by the addition of 200 μl of […] after 10 minutes of incubation.
The concentrations of 3-hydroxy-kynurenine, produced in the absence or presence of the tested molecules are determined by HPLC with coulometric detection (pot. +0.20 V), using for the separation a reversed phase column C18, 10 cm long and a 3 μm particulate. The composition of the mobile phase was: 950 ml of water for HPLC, 20 ml of acetonitrile, 9 ml of triethylamine, 5.9 ml of phosphoric acid, 100 mg of Na EDTA and 1.5 g of heptanesulfonic acid.

[4] = target: T2, rat brain kynureninase; test: Kynureninase assay in the rat brain; format: biochemical; conditions: rat brain homogenate; read-out: IC50 Kyn-Ase
[5] = target: T3, kynureninase (Rattus norvegicus, UniProt P70712); test: Kynureninase inhibition in rat liver homogenates; format: biochemical; conditions: rat liver homogenate; for inhibition at 1000 µM: 1 mM
T3 construct: from tissue; host or cells: rat liver homogenate
T3 sequence (P70712 1-464): T2 sequence (P70712 1-464)
Description: The efficacy of the compounds of the invention in the inhibition of kynureninase has been evaluated in rat liver homogenates as described by, Takikawa O. et al. in J. Biol. Chem. 261 (8), 3648-3652 - 1986), with slight modifications.
HPLC method was essentially Takikawa's method, using the same Fluorimetric detection (ex. 313 nm, em. 420 nm) but changing the column (Nova-Pak C18 3.9×300 mm) and the mobile phase (phosphate buffer 80 mM, 13% CH.CN pH 2.5).

SMILES	melting point	inhibition at 100 µM [1] [%]	IC50 [1] [µM]	inhibition at 100 µM [2] [%]	further results
COc1cccc(C(=O)C[C@@H](N)C(=O)O)c1 (racemic) [FCE 28629, (R,S)-2-amino-4-(3′-methoxyphenyl)-4-oxo-butyric acid]	–	–	–	–	% INHIBITION AT 100 μM Kyn-3-OH-Ase [1]: 29%; % INHIBITION AT 100 μM Kyn-Ase [2]: 54%
N[C@H](CC(=O)c1ccccc1Cl)C(=O)O (racemic) [FCE 28753, (R,S)-2-amino-4-(2′-chloroohenyl)-4-oxo-butyric acid]	–	–	–	–	% INHIBITION AT 100 μM Kyn-3-OH-Ase [1]: 22%; % INHIBITION AT 100 μM Kyn-Ase [2]: 71%
COc1ccc(C(=O)CC(N)C(=O)O)cc1 (racemic) [FCE 28628, (R,S)-2-amino-4-(4′-methoxyphenyl)-4-oxo-butyric acid]	160 °C (dec.)	79	30	17	–
Cc1ccccc1C(=O)CC(N)C(=O)O (racemic) [FCE 28630, (R,S)-2-amino-4-(2′-methylphenyl)-4-oxo-butyric acid]	192 to 193 °C (dec.)	81	23	40	–
COc1ccccc1C(=O)CC(N)C(=O)O (racemic) [FCE 27384, (R,S)-2-amino-4-(2′-methoxyphenyl)-4-oxo-butyric acid]	115 °C (dec.)	4	–	86	inhibition at 100 µM ([3]; 100 μM): 3%; inhibition at 1000 µM ([3]; 1 mM): 30%; IC50 [4]: 6 µM; inhibition at 100 µM [5]: 96%; inhibition at 1000 µM [5]: 97%
N[C@H](CC(=O)c1ccccc1F)C(=O)O (racemic) [FCE 28631, (R,S)-2-amino-4-(2′-fluorophenyl)-4-oxo-butyric acid]	–	–	–	–	% INHIBITION AT 100 μM Kyn-3-OH-Ase [1]: 47%; % INHIBITION AT 100 μM Kyn-Ase [2]: 52%
N[C@@H](CC(=O)c1ccccc1)C(=O)O [FCE 28468, (S)-2-amino-4-phenyl-4-oxo-butyric acid]	–	–	–	61	–
NC(CC(=O)c1ccccc1)C(=O)O (racemic) [FCE 27377, (R,S)-2-amino-4-phenyl-4-oxo-butyric acid]	–	–	–	35.6	inhibition at 100 µM [5]: 46%; inhibition at 1000 µM [5]: 86%
N[C@H](CC(=O)c1cccc(C(F)(F)F)c1)C(=O)O (racemic) [FCE 28680, (R,S)-2-amino-4-(3′-trifluoromethylphenyl)-4-oxo-butyric acid]	–	–	–	–	% INHIBITION AT 100 μM Kyn-3-OH-Ase [1]: 17%; % INHIBITION AT 100 μM Kyn-Ase [2]: 67%
COc1ccc(F)cc1C(=O)C[C@@H](N)C(=O)O (racemic) [FCE 28766, (R,S)-2-amino-4-(2′-methoxy-5′-fluoropheryl)-4-oxo-butyric acid]	–	–	–	–	% INHIBITION AT 100 μM Kyn-3-OH-Ase [1]: 2%; % INHIBITION AT 100 μM Kyn-Ase [2]: 81%
N[C@H](CC(=O)c1ccccc1)C(=O)O [FCE 28469, (R)-2-amino-4-phenyl-4-oxo-butyric acid]	–	–	–	19	–
COc1ccccc1C(=O)C[C@H](N)C(=O)O [FCE 28626, (S)-2-amino-4-(2′-methoxyphenyl)-4-oxo-butyric acid]	130 °C (dec.)	–	–	–	–

Now from value to compound, other results behind:

melting point	inhibition at 100 µM [1] [%]	IC50 [1] [µM]	inhibition at 100 µM [2] [%]	SMILES	further results
204 to 206 °C	85	7	0	NC(CC(=O)c1ccc(Cl)cc1)C(=O)O (racemic) [FCE 28751, (R,S)-2-amino-4-(4′-chlorophenyl)-4-oxo-butyric acid]	–
194 to 195 °C (dec.)	93	0.9	0	NC(CC(=O)c1cccc(F)c1)C(=O)O (racemic) [FCE 28764, (R,S)-2-amino-4-(3′-fluorophenyl)-4-oxo-butyric acid]	–
198 to 200 °C (dec.)	93	0.4	60	NC(CC(=O)c1cccc(Cl)c1)C(=O)O (racemic) [FCE 28752, (R,S)-2-amino-4-(3′-chlorophenyl)-4-oxo-butyric acid]	–
–	73	33	–	COc1ccc(Cl)cc1C(=O)CC(N)C(=O)O (racemic) [FCE 28836, (R,S)-2-amino-4-(2′-methoxy-5′-chlorophenyl-4-oxo-butyric acid]	–
212 to 213 °C	–	–	–	COc1ccc(Cl)cc1C(=O)CC(N)C(=O)O (racemic) (as salt: hydrochloride) [FCE 28836, (R,S)-2-amino-4-(2′-methoxy-5′-chlorophenyl-4-oxo-butyric acid]	–
–	99	0.2	–	NC(CC(=O)c1ccc(Cl)c(Cl)c1)C(=O)O (racemic) [FCE 28833, (R,S)-2-amino-4-(3′,4′-dichlorophenyl)-4-oxo-butyric acid]	–
